From the NIST ThermoML archive (doi:10.1021/je400970y)
Numbers after ± are expanded uncertainties.

Settings: Liquid, Closed cell (Static) method

C=C(F)C(F)(F)F [2,3,3,3-tetrafluoro-1-propene]
Settings	vapor or sublimation pressure [kPa]
248.17 K	123.1 ± 3
251.18 K	138.8 ± 3
254.21 K	156.9 ± 3
258.2 K	184.3 ± 3
260.18 K	198.3 ± 3
262.18 K	213.8 ± 3
264.2 K	229.9 ± 3
266.25 K	248.1 ± 3
270.26 K	286 ± 3.1
271.16 K	295.3 ± 3.1
273.21 K	316.5 ± 3.1
275.22 K	338.2 ± 3.1
277.22 K	361.5 ± 3.1
279.14 K	385.1 ± 3.1
281.23 K	411.4 ± 3.1
285.18 K	466.2 ± 3.1
287.22 K	496.4 ± 3.1
289.22 K	526.7 ± 3.2
291.22 K	558.8 ± 3.2
293.25 K	593.4 ± 3.2
295.25 K	627.9 ± 3.2
297.55 K	672.2 ± 3.2
299.19 K	703 ± 3.3
301.32 K	746.2 ± 3.3
303.25 K	786.5 ± 3.3
305.11 K	825.8 ± 3.3
306.31 K	852.9 ± 3.4
309.51 K	927.9 ± 3.4
311.49 K	976.6 ± 3.5
313.43 K	1026.2 ± 3.5
315.55 K	1082.8 ± 3.5
317.23 K	1128.4 ± 3.6
319.14 K	1182.9 ± 3.6
321.02 K	1237.8 ± 3.7
323.79 K	1322.3 ± 3.8
325.56 K	1380 ± 3.8
326.82 K	1420.8 ± 3.9
328.86 K	1490.2 ± 3.9
330.87 K	1560.1 ± 4
332.97 K	1635.8 ± 4.1
334.99 K	1711.2 ± 4.2
336.99 K	1788.7 ± 4.2
338.97 K	1868.1 ± 4.3
341.06 K	1955.5 ± 4.4
343.04 K	2040.1 ± 4.5
345.05 K	2129.1 ± 4.6
347.06 K	2221.2 ± 4.7
349.05 K	2315.9 ± 4.9
351.03 K	2412.1 ± 5
353.08 K	2516.4 ± 5.1
355.03 K	2618.5 ± 5.2
357.23 K	2738.3 ± 5.4
359.34 K	2856.6 ± 5.5
361.05 K	2955.2 ± 5.7

CC(F)(Cl)C(F)(F)F (stereo not given) [2-chloro-1,1,1,2-tetrafluoropropane]
Settings	vapor or sublimation pressure [kPa]
268.19 K	49.7 ± 3
270.19 K	54.4 ± 3
273.18 K	60.5 ± 3
275.18 K	66.4 ± 3
278.16 K	74.3 ± 3
281.15 K	83.9 ± 3
283.12 K	88.9 ± 3
286.13 K	100.5 ± 3
288.11 K	106.5 ± 3
290.12 K	116 ± 3
292.13 K	124.6 ± 3
295.09 K	138.2 ± 3
298.12 K	151.8 ± 3
300.09 K	163.5 ± 3
302.11 K	175.3 ± 3
304.25 K	185.9 ± 3
307.02 K	203.2 ± 3
308.9 K	215.2 ± 3
310.68 K	227.6 ± 3
313.35 K	247.9 ± 3
315.28 K	261.8 ± 3
318.34 K	286.5 ± 3.1
320.84 K	307.9 ± 3.1
324.02 K	334.9 ± 3.1
325.63 K	351.9 ± 3.1
328.81 K	382.6 ± 3.1
330.46 K	401.6 ± 3.1
333.63 K	435.9 ± 3.1
335.25 K	456.6 ± 3.1
338.51 K	495.5 ± 3.1
339.67 K	510.3 ± 3.1
341.68 K	536.4 ± 3.2
343.28 K	559.6 ± 3.2
345.27 K	588.1 ± 3.2
347.07 K	615.8 ± 3.2
349.07 K	645.9 ± 3.2
